“Also recorded” adds a separate entry of the source.
Experiments:
[1] = system: dyspepsia symptoms; settings: dysmotility-like and gastroesophageal reflux-like dyspepsia; cited from earlier work
[2] = system: small bowel motility in humans with IBS; assay: Small bowel manometry in fasted IBS patients during intravenous GLP-1 infusion; assay type: in vivo, human; settings: for Contraction frequency / Contraction amplitude / Contraction area / Motility index Ln (Sum (mm Hg*s)/min): 4 h, fasted IBS patients; for Contraction frequency: angle of Treitz; for Contraction frequency / Contraction amplitude / Contraction area / Motility index Ln (Sum (mm Hg*s)/min) / Adjusted MMC: mean ±SEM n=6; for Adjusted MMC: premature MMC at onset subtracted
Protocol: Experiments were carried out in 12 subjects fulfilling the Rome-criteria for IBS. In the fasted subjects a small bowel manometry tube was passed through the nose and located in antroduodenal region under fluoroscopy. Then, small bowel manometry was recorded for 8 hours in the fasted state, and for an additional 40 min after a meal (320 kcal). During the first 4-hour period of the recording saline was administered intravenously. During the second 4-hour period GLP-1 was given intravenously either at a dose of 1.2 pmol/kg/min (72 pmol/kg/h) (n=6) or 2.5 pmol/kg/min (150 pmol/kg/h) (n=6) with the infusion continued over the 40-minute meal period. GLP-1 was administered as an intravenous infusion at a dose of 1.2 or 2.5 pmol/kg/min. The compound was diluted from a stock solution of GLP-1 (Polypeptide, Wolfenbüttel, Hannover, Germany) 100 nmol/ml prepared according to general guidelines with sterilization filtration and endotoxin test, and divided in 10 ml ampoules.
For each patient the solution for infusion was constituted according to body weight. The dose to be given was multiplied by body weight, resulting in an individual dosing, expressed as pmol/min. The calculated total dose (according to extrapolated 250 ml infusion time) was taken from the stock solution and diluted in 250 ml infusion volume of saline (Natriumklorid 9 mg/ml, Pharmacia & Upjohn, Stockholm, Sweden). The infusion was then given at a rate of 1 ml/min with a constant infusion pump (Volumetric infusion pump, model 960, Imed, Oxon, UK) over 4 hours (240 min).
As this premature MMC cycle was considered to be due to an immediate effect of GLP-1 during a build-up of a steady state concentration in the circulation, an adjusted MMC prevalence during GLP-1 infusion was calculated by subtracting the premature MMC at onset from the remaining MMC observed during infusion of GLP-1.
In detail, the following results were obtained from the motility recordings (reference point: angle of Treitz; values are mean ±SEM of n=6 in each group; statistical evaluation by the non-parametric Wilcoxon signed-rank test): […]

[3] = system: gastric emptying and small intestinal motility; assay: Gastric emptying and small intestinal motility in the rat; assay type: in vivo
[4] = system: gastric acid secretion; settings: in man; cited from earlier work
[5] = system: gastric emptying; settings: in man; cited from earlier work
[6] = system: pancreatic secretion; settings: in vivo; cited from earlier work

Compound	Symptomatic relief, share of studied patients [1]	Time after onset of infusion to start of an MMC in the duodenum ([2]; GLP-1 1.2 pmol/kg/min i.v.) [min]	Contraction frequency ([2]; GLP-1 1.2 pmol/kg/min i.v.)	Contraction amplitude ([2]; GLP-1 1.2 pmol/kg/min i.v.) [mm Hg]	Contraction area ([2]; GLP-1 1.2 pmol/kg/min i.v.) [mm Hg*s]	Motility index Ln (Sum (mm Hg*s)/min) ([2]; GLP-1 1.2 pmol/kg/min i.v.)	Adjusted MMC ([2]; GLP-1 1.2 pmol/kg/min i.v.)	Time after onset of infusion to start of an MMC in the duodenum ([2]; GLP-1 2.5 pmol/kg/min i.v.) [min]	Contraction frequency ([2]; GLP-1 2.5 pmol/kg/min i.v.)	Contraction amplitude ([2]; GLP-1 2.5 pmol/kg/min i.v.) [mm Hg]	Contraction area ([2]; GLP-1 2.5 pmol/kg/min i.v.) [mm Hg*s]	Motility index Ln (Sum (mm Hg*s)/min) ([2]; GLP-1 2.5 pmol/kg/min i.v.)	Adjusted MMC ([2]; GLP-1 2.5 pmol/kg/min i.v.)	Effect on motor activity in the small bowel (overall result in words) ([2]; IBS patients, fasted state)	Patients in whom a premature MMC was started in the duodenum ([2]; in each group (1.2 and 2.5 pmol/kg/min))	Action on gastric emptying and small intestinal motility (in words) [3]	Inhibition of gastric acid secretion [4] [%]	Slowing of gastric emptying [5] [%]	Inhibition of pancreatic secretion [6]
COc1cc(N)c(Cl)cc1C(=O)NC1CCN(CCCOc2ccc(F)cc2)CC1OC (stereo not shown) [cisapride]	60-90%	–	–	–	–	–	–	–	–	–	–	–	–	–	–	–	–	–	–
glucagon-like peptide-1 [GLP-1]	–	≤ 14.2 ± 3.8	1.7 ± 0.4 #/min	24.7 ± 1.6	33.4 ± 3.2	4.7 ± 0.3	0.0 ± 0.0 #/4 h	≤ 12.0 ± 2.7	0.9 ± 0.2 #/min	23.6 ± 2.5	30.5 ± 5.3	3.8 ± 0.8	0.2 ± 0.2 #/4 h	able to reduce the motor activity; also recorded: dose-dependent reduction of motor activity	four out of six	profound inhibitory action	43	50	about 45%
